Laboratory results published in patent publication US12129246B1, “Hydroquinazoline derivatives for the treatment of a disease or disorder” (Novartis AG, priority 2023, dated 2024).
Like-named read-outs stand apart in the source and are kept apart here.

Columns and labels:
monkey NPR1 = monkey NPR1 (Macaca fascicularis, UniProt A0A7N9DBT9); experiment: Cellular cGMP production assay, monkey NPR1 expressing CHO-K1 cells (CisBio HTRF); type: cell-based; settings: for Monkey NPR1 Amax (% of ANP): maximum cGMP production as percentage of the maximum cGMP produced with ANP
Sequence of monkey NPR1 (A0A7N9DBT9 entry or part of it): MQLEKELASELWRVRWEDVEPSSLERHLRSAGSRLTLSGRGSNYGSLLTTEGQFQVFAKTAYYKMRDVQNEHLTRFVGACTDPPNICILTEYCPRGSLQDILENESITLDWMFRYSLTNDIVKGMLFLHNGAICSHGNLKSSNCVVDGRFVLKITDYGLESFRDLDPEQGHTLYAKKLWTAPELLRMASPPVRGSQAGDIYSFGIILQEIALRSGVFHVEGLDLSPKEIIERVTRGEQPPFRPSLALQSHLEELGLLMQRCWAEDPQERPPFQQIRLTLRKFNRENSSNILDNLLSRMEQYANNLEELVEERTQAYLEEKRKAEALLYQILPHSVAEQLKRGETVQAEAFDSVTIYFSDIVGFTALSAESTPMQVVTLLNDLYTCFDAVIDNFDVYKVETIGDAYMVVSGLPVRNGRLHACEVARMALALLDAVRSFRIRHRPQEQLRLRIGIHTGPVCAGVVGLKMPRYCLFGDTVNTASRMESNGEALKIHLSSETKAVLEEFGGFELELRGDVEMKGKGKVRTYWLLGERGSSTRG
In short: (§1)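 Cells receive IBMX (1 mM) assay buffer plus test compound over twelve threefold dilutions starting at 30 μM, and cGMP accumulates for 30 min at 37 °C. Lysates are then incubated one hour at room temperature with d2-labelled cGMP and cryptate-labelled antibody before time-resolved fluorescence reading.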

human NPR1 = target: T1, human NPR1 (Homo sapiens, UniProt P16066); experiment: Cellular cGMP production assay, human NPR1 expressing CHO-K1 cells (CisBio HTRF); type: cell-based; settings: for AC50: cGMP production, 30 min at 37° C., 12-point dose-response from 30 μM; for Human NPR1 Amax (% of ANP): maximum cGMP production as percentage of the maximum cGMP produced with ANP
T1 construct: host or cells: CHO-K1
T1 sequence (P16066 33-1061): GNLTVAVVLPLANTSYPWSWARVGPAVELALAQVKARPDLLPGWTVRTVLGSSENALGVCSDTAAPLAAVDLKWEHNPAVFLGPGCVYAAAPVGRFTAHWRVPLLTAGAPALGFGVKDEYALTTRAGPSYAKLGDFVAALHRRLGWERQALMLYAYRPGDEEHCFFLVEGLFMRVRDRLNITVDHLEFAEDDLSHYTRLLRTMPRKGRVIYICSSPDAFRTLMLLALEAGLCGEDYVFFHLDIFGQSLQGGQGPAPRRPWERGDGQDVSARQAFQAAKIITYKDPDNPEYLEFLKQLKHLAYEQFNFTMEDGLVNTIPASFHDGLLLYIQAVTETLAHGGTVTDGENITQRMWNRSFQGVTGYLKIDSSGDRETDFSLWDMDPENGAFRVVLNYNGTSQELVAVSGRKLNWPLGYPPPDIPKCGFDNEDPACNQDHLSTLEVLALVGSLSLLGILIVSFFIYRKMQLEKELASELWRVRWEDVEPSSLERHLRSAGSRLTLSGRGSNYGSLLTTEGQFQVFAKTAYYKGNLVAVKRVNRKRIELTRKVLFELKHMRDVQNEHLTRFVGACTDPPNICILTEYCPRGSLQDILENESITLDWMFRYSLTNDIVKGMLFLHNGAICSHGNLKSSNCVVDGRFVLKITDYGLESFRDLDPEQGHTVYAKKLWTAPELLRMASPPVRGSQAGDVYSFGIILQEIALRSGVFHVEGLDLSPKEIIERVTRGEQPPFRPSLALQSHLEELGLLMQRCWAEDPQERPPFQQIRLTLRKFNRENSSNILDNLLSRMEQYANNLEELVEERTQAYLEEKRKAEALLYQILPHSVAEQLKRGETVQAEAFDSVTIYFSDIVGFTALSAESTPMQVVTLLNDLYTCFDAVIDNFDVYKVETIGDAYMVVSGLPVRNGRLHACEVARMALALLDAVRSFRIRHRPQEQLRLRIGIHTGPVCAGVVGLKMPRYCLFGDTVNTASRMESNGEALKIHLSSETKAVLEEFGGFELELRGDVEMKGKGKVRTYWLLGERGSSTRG
In short: as §1

[1] = cGMP production, monkey NPR1 CHO-K1 cells, 30 min at 37° C., 12-point dose-response from 30 μM, read-out: Monkey NPR1 AC50

Structure (SMILES): O=C(O)[C@H]1CC[C@H](C(CC2CC2)Nc2nc3c(c(N[C@@H](CN4CCCC4)c4ccccc4)n2)CC(c2ccccc2)CC3)CC1 (stereo partly drawn) [Compound 139, (1R,4r)-4-((1R)-2-cyclopropyl-1-((6-phenyl-4-(((R)-1-phenyl-2-(pyrrolidin-1-yl)ethyl)amino)-5,6,7,8-tetrahydroquinazolin-2-yl)amino)ethyl)cyclohexane-1-carboxylic acid]
- AC50 (monkey NPR1; [1]): 696 nM
- Monkey NPR1 Amax (% of ANP) (monkey NPR1; monkey NPR1 CHO-K1 cells): 111.911 % of ANP
- AC50 (human NPR1): 876 nM
- Human NPR1 Amax (% of ANP) (human NPR1): 105.089 % of ANP

Structure (SMILES): CC[C@@H](Nc1nc2c(c(N[C@@H](CNC3CCOCC3)c3ccccc3)n1)C[C@H](c1ccccc1)CC2)[C@H]1CC[C@H](C(=O)O)CC1 [Compound 166, (1R,4r)-4-((R)-1-(((R)-6-phenyl-4-(((R)-1-phenyl-2-((tetrahydro-2H-pyran-4-yl)amino)ethyl)amino)-5,6,7,8-tetrahydroquinazolin-2-yl)amino)propyl)cyclohexane-1-carboxylic acid]
- AC50 (monkey NPR1; [1]): 1980 nM
- Monkey NPR1 Amax (% of ANP) (monkey NPR1; monkey NPR1 CHO-K1 cells): 96.913 % of ANP
- AC50 (human NPR1): 2000 nM
- Human NPR1 Amax (% of ANP) (human NPR1): 101.913 % of ANP

Structure (SMILES): CC[C@@H](Nc1nc2c(c(N[C@@H](CN3C4CCCC3CCC4)c3cnn(C)c3)n1)C[C@H](c1cccc(F)c1)CC2)[C@H]1CC[C@H](C(=O)O)CC1 [Compound 15, (1R,4r)-4-((R)-1-(((R)-4-(((R)-2-((1S,5S)-9-azabicyclo[3.3.1]nonan-9-yl)-1-(1-methyl-1H-pyrazol-4-yl)ethyl)amino)-6-(3-fluorophenyl)-5,6,7,8-tetrahydroquinazolin-2-yl)amino)propyl)cyclohexane-1-carboxylic acid]
- AC50 (monkey NPR1): 92 nM
- Monkey NPR1 Amax (% of ANP) (monkey NPR1; monkey NPR1 CHO-K1 cells): 109.175 % of ANP
- AC50 (human NPR1): 102 nM
- Human NPR1 Amax (% of ANP) (human NPR1): 106.001 % of ANP

Structure (SMILES): CC[C@H]([C@H]1CC[C@H](C(=O)O)CC1)N(C)c1nc2c(c(N[C@@H](CN3CCC[C@H](OC)C3)c3cnn(C)c3)n1)C[C@H](c1ccccc1)CC2 [Compound 134, (1R,4r)-4-((R)-1-(((R)-4-(((R)-2-((S)-3-methoxypiperidin-1-yl)-1-(1-methyl-1H-pyrazol-4-yl)ethyl)amino)-6-phenyl-5,6,7,8-tetrahydroquinazolin-2-yl)(methyl)amino)propyl)cyclohexane-1-carboxylic acid]
- AC50 (monkey NPR1; [1]): 684 nM
- Monkey NPR1 Amax (% of ANP) (monkey NPR1; monkey NPR1 CHO-K1 cells): 96.371 % of ANP
- AC50 (human NPR1): 792 nM
- Human NPR1 Amax (% of ANP) (human NPR1): 101.936 % of ANP

Structure (SMILES): CC[C@H]([C@H]1CC[C@H](C(=O)O)CC1)N(C)c1nc2c(c(N[C@@H](CN3C4CCCC3CC(O)C4)c3cnn(CC)c3)n1)C[C@H](c1cccc(F)c1)CC2 (stereo partly drawn) [Compound 79, (1R,4r)-4-((1R)-1-(((6R)-4-(((1R)-1-(1-ethyl-1H-pyrazol-4-yl)-2-((1R,5S)-3-hydroxy-9-azabicyclo[3.3.1]nonan-9-yl)ethyl)amino)-6-(3-fluorophenyl)-5,6,7,8-tetrahydroquinazolin-2-yl)(methyl)amino)propyl)cyclohexane-1-carboxylic acid]
- AC50 (monkey NPR1): 327 nM
- Monkey NPR1 Amax (% of ANP) (monkey NPR1; monkey NPR1 CHO-K1 cells): 104.610 % of ANP
- AC50 (human NPR1): 257 nM
- Human NPR1 Amax (% of ANP) (human NPR1): 101.351 % of ANP

Structure (SMILES): CC[C@H]([C@H]1CC[C@H](C(=O)O)CC1)N(C)c1nc2c(c(N[C@@H](CN3CCC[C@H](C)C3)c3cnn(C)c3)n1)C[C@@H](c1ccccc1F)CC2 [Compound 141, (1R,4r)-4-((R)-1-(((S)-6-(2-fluorophenyl)-4-(((R)-1-(1-methyl-1H-pyrazol-4-yl)-2-((S)-3-methylpiperidin-1-yl)ethyl)amino)-5,6,7,8-tetrahydroquinazolin-2-yl)(methyl)amino)propyl)cyclohexane-1-carboxylic acid]
- AC50 (monkey NPR1; [1]): 731 nM
- Monkey NPR1 Amax (% of ANP) (monkey NPR1; monkey NPR1 CHO-K1 cells): 105.798 % of ANP
- AC50 (human NPR1): 888 nM
- Human NPR1 Amax (% of ANP) (human NPR1): 102.728 % of ANP

Structure (SMILES): CC[C@@H](Nc1nc2c(c(N[C@@H](CN3CCCC4(CCOC4)C3)c3cnn(CC)c3)n1)C[C@H](c1ccccc1)CC2)[C@H]1CC[C@H](C(=O)O)CC1 (stereo partly drawn) [Compound 109, (1R,4r)-4-((1R)-1-(((6R)-4-(((1R)-1-(1-ethyl-1H-pyrazol-4-yl)-2-(2-oxa-7-azaspiro[4.5]decan-7-yl)ethyl)amino)-6-phenyl-5,6,7,8-tetrahydroquinazolin-2-yl)amino)propyl)cyclohexane-1-carboxylic acid]
- AC50 (monkey NPR1; [1]): 190 nM
- Monkey NPR1 Amax (% of ANP) (monkey NPR1; monkey NPR1 CHO-K1 cells): 115.338 % of ANP
- AC50 (human NPR1): 412 nM
- Human NPR1 Amax (% of ANP) (human NPR1): 91.101 % of ANP

Structure (SMILES): CC[C@H]([C@H]1CC[C@H](C(=O)O)CC1)N(C)c1nc2c(c(N[C@@H](CN3CCCCC3)c3cnn(CC)c3)n1)C[C@@H](c1cccc(F)c1)CC2 [Compound 116, (1R,4r)-4-((R)-1-(((S)-4-(((R)-1-(1-ethyl-1H-pyrazol-4-yl)-2-(piperidin-1-yl)ethyl)amino)-6-(3-fluorophenyl)-5,6,7,8-tetrahydroquinazolin-2-yl)(methyl)amino)propyl)cyclohexane-1-carboxylic acid]
- AC50 (monkey NPR1; [1]): 471 nM
- Monkey NPR1 Amax (% of ANP) (monkey NPR1; monkey NPR1 CHO-K1 cells): 104.029 % of ANP
- AC50 (human NPR1): 477 nM
- Human NPR1 Amax (% of ANP) (human NPR1): 95.817 % of ANP

Structure (SMILES): CC[C@H]([C@H]1CC[C@H](C(=O)O)CC1)N(C)c1nc2c(c(N[C@@H](CN3C4CC5CC(C4)CC3C5)c3cnn(C)c3)n1)C[C@H](c1ccccc1)CC2 [Compound 98, (1R,4r)-4-((R)-1-(((R)-4-(((R)-2-((1R,3R,5R,7R)-2-azaadamantan-2-yl)-1-(1-methyl-1H-pyrazol-4-yl)ethyl)amino)-6-phenyl-5,6,7,8-tetrahydroquinazolin-2-yl)(methyl)amino)propyl)cyclohexane-1-carboxylic acid]
- AC50 (monkey NPR1; [1]): 179 nM
- Monkey NPR1 Amax (% of ANP) (monkey NPR1; monkey NPR1 CHO-K1 cells): 105.533 % of ANP
- AC50 (human NPR1): 346 nM
- Human NPR1 Amax (% of ANP) (human NPR1): 100.756 % of ANP

Structure (SMILES): CC[C@@H](Nc1nc2c(c(N[C@@H](CN3CCCCC3)c3cnn(CC)c3)n1)C[C@H](c1ccccc1)CC2)[C@H]1CC[C@H](C(=O)O)CC1 [Compound 45, (1R,4r)-4-((R)-1-(((R)-4-(((R)-1-(1-ethyl-1H-pyrazol-4-yl)-2-(piperidin-1-yl)ethyl)amino)-6-phenyl-5,6,7,8-tetrahydroquinazolin-2-yl)amino)propyl)cyclohexane-1-carboxylic acid]
- AC50 (monkey NPR1; [1]): 125 nM
- Monkey NPR1 Amax (% of ANP) (monkey NPR1; monkey NPR1 CHO-K1 cells): 99.911 % of ANP
- AC50 (human NPR1): 175 nM
- Human NPR1 Amax (% of ANP) (human NPR1): 98.472 % of ANP

Structure (SMILES): CC[C@H]([C@H]1CC[C@H](C(=O)O)CC1)N(C)c1nc2c(c(N[C@@H](CN3C4CCCC3CC4)c3cc(C)n(C)n3)n1)C[C@H](c1cccc(F)c1)CC2 [Compound 88, (1R,4r)-4-((1R)-1-(((6R)-4-(((1S)-2-(8-azabicyclo[3.2.1]octan-8-yl)-1-(1,5-dimethyl-1H-pyrazol-3-yl)ethyl)amino)-6-(3-fluorophenyl)-5,6,7,8-tetrahydroquinazolin-2-yl)(methyl)amino)propyl)cyclohexane-1-carboxylic acid]
- AC50 (monkey NPR1): 255 nM
- Monkey NPR1 Amax (% of ANP) (monkey NPR1; monkey NPR1 CHO-K1 cells): 94.699 % of ANP
- AC50 (human NPR1): 303 nM
- Human NPR1 Amax (% of ANP) (human NPR1): 98.817 % of ANP

Structure (SMILES): CC[C@@H]([C@H]1CC[C@@](F)(C(=O)O)CC1)N(C)c1nc2c(c(N[C@H](CN3CCC[C@@H](C)C3)c3cnn(C)c3)n1)C[C@@H](c1ccccc1)CC2 [Compound 21, (1S,4r)-1-fluoro-4-((S)-1-(methyl((S)-4-(((S)-1-(1-methyl-1H-pyrazol-4-yl)-2-((R)-3-methylpiperidin-1-yl)ethyl)amino)-6-phenyl-5,6,7,8-tetrahydroquinazolin-2-yl)amino)propyl)cyclohexane-1-carboxylic acid]
- AC50 (monkey NPR1; [1]): 93 nM
- Monkey NPR1 Amax (% of ANP) (monkey NPR1; monkey NPR1 CHO-K1 cells): 101.974 % of ANP
- AC50 (human NPR1): 111 nM
- Human NPR1 Amax (% of ANP) (human NPR1): 96.122 % of ANP

Structure (SMILES): CC[C@@H](N(C)c1nc2c(c(N[C@@H](CN3C4CCCC3CC4)c3cnn(CC)c3)n1)C[C@H](c1cccc(F)c1)CC2)C12CC(C(=O)O)(C1)C2 [Compound 42, 3-((1R)-1-(((6R)-4-(((1R)-2-(8-azabicyclo[3.2.1]octan-8-yl)-1-(1-ethyl-1H-pyrazol-4-yl)ethyl)amino)-6-(3-fluorophenyl)-5,6,7,8-tetrahydroquinazolin-2-yl)(methyl)amino)propyl)bicyclo[1.1.1]pentane-1-carboxylic acid]
- AC50 (monkey NPR1): 146 nM
- Monkey NPR1 Amax (% of ANP) (monkey NPR1; monkey NPR1 CHO-K1 cells): 101.138 % of ANP
- AC50 (human NPR1): 169 nM
- Human NPR1 Amax (% of ANP) (human NPR1): 92.080 % of ANP
